Measurements published in patent US10292991B2, “Small molecule therapeutic compounds that reduce the incidence of intracerebral hemorrhage and brain microhemorrhages” (St. Michaels Hospital, priority 2016, dated 2019).
Like-named read-outs stand apart in the source and are kept apart here.

Key:
[1] = test system: β-Pix MO-induced hemorrhage in zebrafish; assay: βPix morpholino-induced hemorrhage in zebrafish, rescue by drugs; assay type: in vivo, zebrafish (Danio rerio); settings: for Efficacy on β-Pix MO Hemorrhage: inhibition of β-Pix MO-induced hemorrhage
Method: (§1) Morpholino oligonucleotides (MOs) were custom-synthesized by Gene Tools (Carvalis, Oreg.); their sequences are shown in Table 1.
(§2) Danieau buffer (58 mM NaCl, 0.7 mM KCl, 0.4 mM MgSO4, 0.6 mM Ca(NO3)2, 5.0 mM HEPES, pH 7.6) was used to dilute the MO solutions to 0.2 mM final concentration. Individual wells were placed on a 1.0% agarose plate, in which the embryos were positioned. Afterwards, the MO solution was injected through the cell yolk into embryos of 1 to 4 cell-stage. The injected quantities varied from 0.5 to 15 ng.
(§3) bbhm292 zebrafish mutant has a hypomorphic mutation in βPix, resulting in ICH/BMH and hydrocephalus. The MO is βPixexon6-MO which blocks splicing of exon 6 and results in premature protein termination. […] Higher doses of βPixexon6-MO (up to 8 ng) result in a lack of blood circulation, and therefore no ICH/BMH was detected. Injection of 8 ng results in complete missplicing of βPix and therefore a null phenotype, whereas lower doses retain some normally spliced βPix. The βPixexon6-MO sequence is 5′-[…]-3′ [SEQ ID NO: 1]. 3Pixexon6-MO was injected into the embryos at the 1-2 cell stage, and compounds were added 12 hpf.
(§4) The first three morpholino pairs were good for the efficacy study. Efficacy assays were performed using Artemether (ARM, Sigma) and artemesunate (ART, GMP). […] Treating these morphants with the drugs rescued the ICH phenotype.

[2] = test system: bbh mutant zebrafish (mutation in βPix), spontaneous ICH; assay: bbh (bubblehead) mutant genetic model of brain hemorrhage; assay type: in vivo, zebrafish (Danio rerio); settings: for EC50: read-out: EC50 to rescue brain hemorrhage, bbh Mutant Model
Text: A specific zebrafish line with a gene mutation called bubblehead (bbh) was used. This line has spontaneous ICH. Bubblehead phenotype is caused by a mutation in βPix. Adult homozygous zebrafish were viable and fertile. […] More than 85% of zebrafish larvae display an ICH phenotype.

zebrafish larvae [3] = assay: Toxicity assay in zebrafish larvae (heart beat, blood flow, cardiac edema); assay type: in vivo, zebrafish (Danio rerio)
Method: The embryos were collected and distributed into a 96-well plate in 0.5% DMSO, similar to efficacy assays. […] Heart beat and blood flow were ranked from 3 (normal heart beat or blood flow) to 0 (no heart beat or blood flow). Cardiac edema was ranked from 0 (normal heart without edema) to −3 (severe cardiac edema). […] The ratio of TC50/EC50 was calculated in each case.
Heart beat and blood flow were ranked from 3 (normal heart beat or blood flow) to 0 (no heart beat or blood flow). Cardiac edema was ranked from 0 (normal heart without edema) to −3 (severe cardiac edema). […] Data is expressed as mean±SEM from 3 experiments.

[4] = test system: brain hemorrhage induced by 1 μM atorvastatin in zebrafish; assay: Atorvastatin-induced brain hemorrhage (ICH) model in zebrafish, rescue by drugs; settings: for Efficacy on atorvastatin Hemorrhage: ATV model induced by 1 μmol/L atorvastatin, inhibition of hemorrhage; for Result in the ATV zebrafish model: derivatives acquired from Sequoia Research Products
Method: Zebrafish were set up the night before the experiment day. In the morning of the experimental day, we put breeders together for mating and fertilization. 6 hours post-fertilization (hpf), statins was added into a 96-well plate holding 100 μl water with 7 to 8 fish eggs in each well, which was optimized through a serial pilot experiments. Statins were dissolved in DMSO and diluted with 0.5% of DMSO water into a working solution. 100 μl water containing 0.5% of DMSO was the medium for all wells in the final assessment.
For screening NIH compound libraries, 5 μM of each of the drugs from the library was added at 24 hpf into wells containing fish eggs treated with 1 μM ATV since 6 hpf. Hemorrhage positive control wells were treated with ATV but not treated with any drugs. Negative controls were not treated with any chemicals (fish with 0.5% of DMSO water). Geranylgeranyl pyrophosphate (GGPP, 4 mg/L) was used as positive rescue control.
Brain hemorrhage was assessed 72 hpf (66 hours after addition of statins) using stereomicroscopy by two observers. Percentage of brain hemorrhage was used as final readout. Compounds showing more than 70% of rescue of the brain hemorrhages in the initial test were re-tested to generate a final list of hits from the library.
All subsequent EC50 assays of positive compounds were performed with protocols established and optimized during the screening.

[5] = test system: Hmgcrb - splice morpholino-induced hemorrhage in zebrafish; assay: Hmgcrb morpholino-induced hemorrhage in zebrafish, rescue by drugs; assay type: in vivo, zebrafish (Danio rerio)
Method: as §2, §4

[6] = test system: Cdh5 - exon2 morpholino-induced hemorrhage in zebrafish; assay: Cdh5 (VE-cadherin) morpholino-induced hemorrhage in zebrafish, rescue by drugs; assay type: in vivo, zebrafish (Danio rerio); settings: result in words, no EC50
Method: as §2
Panels A & B: Stable EC junctions are maintained by a Cdc42-dependent and VE-cadherin-mediated cell-cell adhesion. VE cadherins are found on the surfaces of EC cell-cell junctions. VE-cadherins are associated with β- and α-catenins at their cytoplasmic domains, which connect them to the actin-based cytoskeleton (blue circles). Cdc42 belongs to the Rho-family of small guanosine triphosphatases (GTPases), which are the main regulators of VE-cadherin-based cell-cell adhesion. The functions of hmgcrb, βPix, and pak2a in regulating junctional stability in zebrafish are shown. HNGCR mediated GGPP biosynthesis regulates Cdc42 prenylation. βPix is a GEF that increases CDC42 affinity for GTP. Pak2 is an effector of Cdc42, which regulates actin filament organization.
Suppression of VE-cadherin induces hemorrhage.

[7] = test system: Pak2a - exon8 morpholino-induced hemorrhage in zebrafish; assay: Pak2a morpholino-induced hemorrhage in zebrafish, rescue by drugs; assay type: in vivo, zebrafish (Danio rerio); settings: result in words
Method: as §2
Another MO was designed to block the splice-donor sites after exon 8 in pak2a. Pak2a is the gene mutated in the rhdmi149 zebrafish mutant that develops ICH/BMH.
Efficacy assays were performed using Artemether (ARM, Sigma) and artemesunate (ART, GMP).

zebrafish larvae [8] = assay: Morpholino injection to induce hemorrhage in zebrafish larvae; assay type: in vivo; settings: for Hemorrhage: at optimum injected amount, 3 dpf larvae, n = 150-250 per condition
Method: as §1, §2, §3
Another MO was designed to block the splice-donor sites after exon 8 in pak2a. Pak2a is the gene mutated in the rhdmi149 zebrafish mutant that develops ICH/BMH. The pak2a-MO sequence is 5′-[…]-3′ (SEQ ID NO: 2). Eight pg of pak2a-MO was injected per embryo, resulting in […] of embryos with ICH/BMH with low mortality (FIGS. 12 and 14).
Next, optimum amount of each morpholino was determined. The goal was to induce an acceptable percentage of hemorrhage (ideally between 40-80%), without having toxicity from morpholino injection.

[9] = drug from Sequoia Research (UK)
[10] = drug from Sigma, 3 dpf larvae, drug added 24 hpf
[11] = Danio rerio, read-out: EC50 (in nmol/L) on atorfvastatin model (μmol/L)
[12] = Danio rerio, read-out: EC50 to rescue brain hemorrhage, Statin Model
[13] = n = 15-20 larvae per condition, 1-3 times per compound

C[C@@H]1CC[C@H]2[C@@H](C)C(=O)O[C@@H]3O[C@]4(C)CC[C@@H]1[C@]32OO4 [Artemisinin]
Efficacy on β-Pix MO Hemorrhage [1]: +++++ (One + sign represents 20% inhibition on 1 μmol/L ATV or β-Pix MO-induced hemorrhage.)
EC50 ([2]; Danio rerio): 177 nM
TC50 (Blood flow) (zebrafish larvae [3]; [9]): 5340 nM
TC50 (Edema) (zebrafish larvae [3]; [9]): 6347 nM
TC50/EC50 ratio (Blood flow) (zebrafish larvae [3]; [9]): (20.4)
TC50/EC50 ratio (Edema) (zebrafish larvae [3]; [9]): 24.2)
TC50/EC50 ratio (Heart beat) (zebrafish larvae [3]; [9]): 4.6e+007)
TC50/EC50 ratio (Blood flow) (zebrafish larvae [3]; drug from Sigma): (13)
TC50/EC50 ratio (Edema) (zebrafish larvae [3]; drug from Sigma): (419)
TC50/EC50 ratio (Heart beat) (zebrafish larvae [3]; drug from Sigma): (104.5)
TC50 (Blood flow) (zebrafish larvae [3]; [10]): 1058 nM
TC50 (Edema) (zebrafish larvae [3]; [10]): 34134 nM
TC50 (Heart beat) (zebrafish larvae [3]; [10]): 8501 nM
Efficacy on atorvastatin Hemorrhage [4]: +++++ (One + sign represents 20% inhibition on 1 μmol/L ATV or β-Pix MO-induced hemorrhage.)
EC50 [4, 11]: 95 nmol/L
EC50 [4, 12]: 81.3 nmol/L
Result in the ATV zebrafish model [4]: tested positive

C[C@H]1[C@H](OC(=O)CCC(=O)O)O[C@@H]2O[C@@]3(C)CC[C@H]4[C@H](C)CC[C@@H]1[C@@]24OO3 [Artesunate]
EC50 ([1]; Table 6, read-out: EC50 to rescue hemorrhage induced by βPix - exon6 morpholino): 95.6 ± 27.9 nM
EC50 [2, 13]: 127 nM
EC50 ([5]; Table 6): 167 ± 9.3 nM
Rescue of hemorrhage induced by Cdh5 - exon2 morpholino [6]: Rescue effect
TC50 (Blood flow) (zebrafish larvae [3]; GMP-Artesunate): 794.4 nM
TC50 (Edema) (zebrafish larvae [3]; GMP-Artesunate): 3196 nM
TC50 (Heart beat) (zebrafish larvae [3]; GMP-Artesunate): 2525 nM
TC50 (Blood flow) (zebrafish larvae [3]; [9]): 1036 nM
TC50 (Edema) (zebrafish larvae [3]; [9]): 937.8 nM
TC50 (Heart beat) (zebrafish larvae [3]; [9]): 9539 nM
TC50 (Blood flow) (zebrafish larvae [3]; [10]): 741.5 nM
TC50 (Edema) (zebrafish larvae [3]; [10]): 5367 nM
TC50 (Heart beat) (zebrafish larvae [3]; [10]): 8884 nM
EC50 ([4]; read-out: EC50 to rescue brain hemorrhage, Statin Model, Table 4, n = 15-20 larvae per condition, three times per compound): 182 nmol/L

C[C@H]1[C@@H](O)O[C@@H]2O[C@]3(C)CC[C@H]4[C@H](C)CC[C@@H]1[C@@]24OO3 [Dihydroartemisinin]
Efficacy on β-Pix MO Hemorrhage [1]: +++++ (One + sign represents 20% inhibition on 1 μmol/L ATV or β-Pix MO-induced hemorrhage.)
EC50 ([2]; Danio rerio): 107 nM
TC50 (Blood flow) (zebrafish larvae [3]; [9]): 979.5 nM
TC50 (Edema) (zebrafish larvae [3]; [9]): 1021 nM
TC50 (Blood flow) (zebrafish larvae [3]; [10]): 890 nM
TC50 (Edema) (zebrafish larvae [3]; [10]): 748.5 nM
Efficacy on atorvastatin Hemorrhage [4]: +++++ (One + sign represents 20% inhibition on 1 μmol/L ATV or β-Pix MO-induced hemorrhage.)
EC50 [4, 11]: 67 nmol/L
EC50 [4, 12]: 80.8 nmol/L
Result in the ATV zebrafish model [4]: tested positive

C#C[C@]1(O)CC[C@H]2[C@@H]3CCc4cc(O)ccc4[C@H]3CC[C@@]21C [Ethynylestradiol]
Efficacy on atorvastatin Hemorrhage [4]: +++ (One + sign represents 20% inhibition on 1 μmol/L ATV or β-Pix MO-induced hemorrhage.)

CCOC(=O)C1=C(C)NC(C)=C(C(=O)OCC)C1c1ccccc1/C=C/C(=O)OC(C)(C)C [Lacidipine]
Efficacy on atorvastatin Hemorrhage [4]: ++++ (One + sign represents 20% inhibition on 1 μmol/L ATV or β-Pix MO-induced hemorrhage.)

CC(C)[C@]12O[C@H]1[C@@H]1O[C@]13[C@]1(O[C@H]1C[C@@]1(C)C4=C(CC[C@]31C)C(=O)OC4)[C@H]2O [Tripolide]
Efficacy on β-Pix MO Hemorrhage [1]: No effect
Efficacy on atorvastatin Hemorrhage [4]: ++++ (One + sign represents 20% inhibition on 1 μmol/L ATV or β-Pix MO-induced hemorrhage.)

Artesunate
ICH in βPixexon6-MO injected embryos ([1]; 5 μmol/L, compounds added 12 hpf): prevented ICH
Efficacy on β-Pix MO Hemorrhage [1]: +++++ (One + sign represents 20% inhibition on 1 μmol/L ATV or β-Pix MO-induced hemorrhage.)
EC50 [2, 13]: 140 nM
Rescue of hemorrhage / ICH phenotype in bbh mutants ([2]; result in words): rescues the ICH phenotype
ICH/BMH after treatment with pak2a-MO [7]: dose-dependently reduced
ICH/BMH after MO-mediated inhibition of hmgcrb ([5]; result in words): prevented
Rescue of hemorrhage induced by Cdh5 - exon2 morpholino [6]: rescue was observed
Efficacy on atorvastatin Hemorrhage [4]: +++++ (One + sign represents 20% inhibition on 1 μmol/L ATV or β-Pix MO-induced hemorrhage.)
EC50 ([4]; read-out: EC50 (in nmol/L) on atorfvastatin model (μmol/L), Table 3, 1 μmol/L atorvastatin, 3 to 4 experiments): 211 nmol/L

Benidipine
Efficacy on β-Pix MO Hemorrhage [1]: ++++ (One + sign represents 20% inhibition on 1 μmol/L ATV or β-Pix MO-induced hemorrhage.)
Efficacy on atorvastatin Hemorrhage [4]: ++++ (One + sign represents 20% inhibition on 1 μmol/L ATV or β-Pix MO-induced hemorrhage.)

Cdh5 - exon2: morpholino 5′-TACAAGACCGTCTACCTTTCCAATC-3′ (antisense; all phosphorodiamidate morpholino (PMO))
Cardiac Edema (zebrafish larvae [8]; at optimum injected amount (1.0 ng)): 35.0% (Cardiac Edema)
Hemorrhage (zebrafish larvae [8]): 39.4%

GGTasel: morpholino 5′-CACGCGGTGTGTGGACTCACGGTCA-3′ (all phosphorodiamidate morpholino (PMO))
Hemorrhage (zebrafish larvae [8]): 11.4% (Faint)

Hmgcrb - splice: morpholino 5′-AACTGCATTCATAAACTCACCCAGT-3′ (all phosphorodiamidate morpholino (PMO))
Hemorrhage (zebrafish larvae [8]): 67.9%

Rap1b - exon3: morpholino 5′-AAATGATGCAGAACTTGCCTTTCTG-3′ (all phosphorodiamidate morpholino (PMO))
Hemorrhage (zebrafish larvae [8]): 30.8% (Faint)
